US7018796B2, “Preincubation assay methods” (Shionogi & Co., Ltd., priority 2000, dated 2006)

Columns and labels:
[1] = target: T1, HCV RNA-dependent RNA polymerase (Hepatitis C virus genotype 1a, UniProt P27958); assay: DIG-UTP assay without radioisotope-labeled substrate, without pre-incubation (Example 2); assay type: biochemical; conditions: no pre-incubation, I-1 0.5 μg/ml, 3′-dUTP 0.7 μM, A 100 μg/ml, B 50 μg/ml, C 25 μg/ml
T1 construct: HCV RNA-dependent RNA polymerase is encoded in the NS5B (nonstructural protein 5B) region of HCV; made in house; host or cells: insect cells or E. coli
T1 sequence (P27958 2421-3011): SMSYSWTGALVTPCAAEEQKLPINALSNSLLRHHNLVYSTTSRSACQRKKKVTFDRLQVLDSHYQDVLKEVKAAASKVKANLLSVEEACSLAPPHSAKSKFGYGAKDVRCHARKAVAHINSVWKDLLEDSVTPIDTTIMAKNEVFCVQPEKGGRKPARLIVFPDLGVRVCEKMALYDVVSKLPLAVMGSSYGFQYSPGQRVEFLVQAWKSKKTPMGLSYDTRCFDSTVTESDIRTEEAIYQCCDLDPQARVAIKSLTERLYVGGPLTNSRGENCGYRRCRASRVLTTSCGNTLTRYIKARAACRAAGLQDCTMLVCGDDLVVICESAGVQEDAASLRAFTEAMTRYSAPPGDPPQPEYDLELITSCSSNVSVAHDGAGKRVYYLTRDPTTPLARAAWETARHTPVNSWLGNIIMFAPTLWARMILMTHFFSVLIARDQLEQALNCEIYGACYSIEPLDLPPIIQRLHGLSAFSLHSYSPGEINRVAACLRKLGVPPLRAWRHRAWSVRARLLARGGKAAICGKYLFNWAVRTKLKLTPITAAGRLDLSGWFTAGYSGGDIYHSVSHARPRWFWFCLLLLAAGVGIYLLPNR
Experimental: After mixing by a plate mixer, the solution was pre-incubated at 25° C. for 1 hr. • 10) On the other hand, the buffer I (10 μl) was transferred into another tube, and UTP (1 μM, 10 μl), DIG-UTP (300 μM, 1 μl), water (24 μl) and a test compound dissolved with dimethyl sulfoxide or water (5 μl) were added to the tube and mixed calmly. Concentrations of the compounds used were as follows.
• 11) The mixed solution (50 μl/well) described in 10) was transferred into each well after the pre-incubation described in 9), mixed by a plate mixer and then incubated at 25° C. for 1 hr. • 12) When the enzyme reaction was in 1 hr, the enzyme reaction was stopped by adding ethylenediaminetetraacetic acid (0.1 M, 50 μl/well). • 13) The plate was washed twice with PBS (200 μl/well) after end of the enzyme reaction. • 14) Next, alkaline phosphatase-labeled anti-DIG antibody (3 U/ml, 100 μl/well) diluted 250-fold with PBS containing skim milk (0.5%) was transferred each well. After mixing by a plate mixer, immuno-reaction was performed at 25° C. for 1 hr. • 15) Each well was washed twice with PBS (200 μl/well) containing skim milk (0.05%) and then washed twice with PBS (200 μl/well). • 16) Substrate solution (150 μl/well) for alkaline phosphatase was prepared by mixing of Tris-HCl (100 mM, pH 9.5), NaCl (100 mM), MgCl2 (5 mM) and p-nitrophenyl phosphate (6 mM) just before use. The substrate solution was transferred into each well of the plate, mixed by a plate mixer and then incubated at 25° C. for 1 hr until the color appears in the solution. • 17) The plate was set on a plate reader and the absorbance was measured at 405 nm. • 18) The inhibitory rate was calculated from the optical density (unit; OD) measured as follows. [formula]
Table 4 summarized the comparison between inhibitory rates in the assay with the pre-incubation and those in the assay without the pre-incubation.

[2] = target: T1, HCV RNA-dependent RNA polymerase; assay: Time course of HCV RdRp inhibitory effect against pre-incubation time and temperature (Examinations 3 and 4); assay type: biochemical; conditions: for Influence of pre-incubation on inhibitory effect at 2° C., 20° C. and 25° C. (FIG. 6, FIG. 7): pre-incubation at any temperature; for Influence of pre-incubation time on inhibitory effect (FIG. 5): pre-incubation time 0 to 180 min
Experimental: In the screening for HCV RNA-dependent RNA polymerase inhibitor, there is a dissociation of inhibitory effect as a different point between an assay method of the present invention and a prior assay method. […] Therefore, the influence of pre-incubation on the inhibitory value of enzyme inhibitor was determined. Using several compounds which evaluated RdRp inhibition in the prior assay method, the time course of HCV RdRp inhibitory effect was determined for 0 min, 15 min, 30 min, 45 min, 60 min, 90 min, 120 min, 150 min and 180 min as a pre-incubation time (FIG. 5).
Influence of pre-incubation on inhibitory value of enzyme inhibitor was determined in Examination 3. The temperature of pre-incubation in Examination 3 was changed and the time course of inhibitory effect was determined at variant temperature of pre-incubation.
Using several compounds, 3′-dUTP, compound I-1 and compound C, which evaluated RdRp inhibition in the prior assay method, the time course of HCV RdRp inhibitory effect was determined at 2° C., 20° C. and 25° C. as a pre-incubation temperature for 0 min, 20 min, 40 min, 60 min, 80 min, and 100 min as a pre-incubation time (FIG. 6, FIG. 7, FIG. 8).

## O=c1ccn([C@@H]2O[C@H](COP(=O)(O)OP(=O)(O)OP(=O)(O)O)C[C@H]2O)c(=O)[nH]1 [3′-dUTP, 3′-deoxyuridine triphosphate]
[1]
  Inhibitory rate, treatment of pre-incubation −: 44%
[2]; 0 to 100 min
  Influence of pre-incubation on inhibitory effect at 2° C., 20° C. and 25° C. (FIG. 6, FIG. 7): not influence by pre-incubation at any temperatures
[2]
  Influence of pre-incubation time on inhibitory effect (FIG. 5): not a large influence by pre-incubation

## Cc1oc(-c2ccccc2)nc1CCOc1ccc(C=C2C(=O)NC(=O)NC2=O)cc1 [Compound A]
[1]
  Inhibitory rate, treatment of pre-incubation −: 87%
[2]
  Influence of pre-incubation time on inhibitory effect (FIG. 5): inhibitory effect decreased with increasing pre-incubation time

## O=C1NC(=O)C(=Cc2ccc(OCCc3cccc4ccccc34)cc2)C(=O)N1 [Compound B]
[1]
  Inhibitory rate, treatment of pre-incubation −: 28%
[2]
  Influence of pre-incubation time on inhibitory effect (FIG. 5): inhibitory effect decreased with increasing pre-incubation time

## CCCCC1=N/C(=C\c2ccccc2OCC(=O)O)C(=O)N1Cc1ccc(-c2ccccc2-c2nnn[nH]2)cc1 [Compound C]
[1]
  Inhibitory rate, treatment of pre-incubation −: 87%
[2]; pre-incubation temperature 2° C., 0 to 100 min
  Influence of pre-incubation on inhibitory effect at 2° C. (FIG. 8): did not appear clear influence
[2]; pre-incubation temperature 20° C. and 25° C., 0 to 100 min
  Influence of pre-incubation on inhibitory effect at 20° C. and 25° C. (FIG. 8): inhibitory effect decreased greatly
[2]
  Influence of pre-incubation time on inhibitory effect (FIG. 5): inhibitory effect decreased with increasing pre-incubation time

## O=C(O)/C(O)=C/C(=O)c1cccc(O)c1 [Compound I-1]
[1]; read-out: Inhibitory rate, treatment of pre-incubation −
  inhibition at 0.5 µg/mL: 59%
[2]; 0 to 100 min
  Influence of pre-incubation on inhibitory effect at 2° C., 20° C. and 25° C. (FIG. 6, FIG. 7): not influence by pre-incubation at any temperatures
